Test results published in ChEMBL document CHEMBL5096219, “Design, synthesis and biological evaluation of novel pyrazinone derivatives as PI3K/HDAC dual inhibitors” (Bioorg Med Chem, 2022).

Experiments:
[1] = molecular target: T1, Protein deacetylase HDAC6 (Homo sapiens, UniProt Q9UBN7); test: Inhibition of HDAC6 (unknown origin)
T1 sequence (Q9UBN7 whole entry): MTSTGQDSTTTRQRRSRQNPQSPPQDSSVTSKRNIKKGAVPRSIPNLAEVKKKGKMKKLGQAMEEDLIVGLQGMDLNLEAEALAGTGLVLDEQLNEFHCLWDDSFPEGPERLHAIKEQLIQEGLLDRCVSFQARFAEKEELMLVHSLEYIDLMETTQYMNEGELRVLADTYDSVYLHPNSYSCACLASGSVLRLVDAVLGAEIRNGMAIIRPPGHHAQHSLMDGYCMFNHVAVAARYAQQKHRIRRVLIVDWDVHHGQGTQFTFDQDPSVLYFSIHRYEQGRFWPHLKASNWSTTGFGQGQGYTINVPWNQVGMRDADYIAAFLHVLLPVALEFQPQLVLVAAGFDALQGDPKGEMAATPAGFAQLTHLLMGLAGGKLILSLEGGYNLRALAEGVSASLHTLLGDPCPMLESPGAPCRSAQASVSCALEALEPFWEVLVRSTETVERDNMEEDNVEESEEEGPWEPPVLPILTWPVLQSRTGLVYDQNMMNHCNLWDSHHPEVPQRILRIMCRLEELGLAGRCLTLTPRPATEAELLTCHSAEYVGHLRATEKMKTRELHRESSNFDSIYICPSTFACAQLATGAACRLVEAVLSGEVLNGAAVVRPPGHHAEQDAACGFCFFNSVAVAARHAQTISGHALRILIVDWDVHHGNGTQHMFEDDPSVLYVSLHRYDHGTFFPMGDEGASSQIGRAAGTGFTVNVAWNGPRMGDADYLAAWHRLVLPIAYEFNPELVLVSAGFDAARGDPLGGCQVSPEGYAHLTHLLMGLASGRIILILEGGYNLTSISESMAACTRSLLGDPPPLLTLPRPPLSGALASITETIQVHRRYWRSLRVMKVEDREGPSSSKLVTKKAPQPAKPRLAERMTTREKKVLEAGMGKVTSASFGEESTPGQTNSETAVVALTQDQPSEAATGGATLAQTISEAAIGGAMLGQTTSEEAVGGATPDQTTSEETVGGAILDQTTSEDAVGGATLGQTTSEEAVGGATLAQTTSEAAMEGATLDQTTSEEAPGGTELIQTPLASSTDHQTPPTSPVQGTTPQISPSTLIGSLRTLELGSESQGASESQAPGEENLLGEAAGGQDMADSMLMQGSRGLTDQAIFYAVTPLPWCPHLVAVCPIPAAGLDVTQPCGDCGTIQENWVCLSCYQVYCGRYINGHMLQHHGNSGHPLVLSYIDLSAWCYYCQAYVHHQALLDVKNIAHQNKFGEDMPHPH

[2] = tested on: MV4-11; test: cells; type: functional, cell-based; conditions: Homo sapiens, MV4-11, 72 h
Description: Antiproliferative activity against human MV4-11 cells assessed as inhibition of cell proliferation incubated for 72 hrs by CCK8 assay

[3] = tested on: HL-60; test: cells; type: functional, cell-based; conditions: Homo sapiens, HL-60, 72 h
Description: Antiproliferative activity against human HL-60 cells assessed as inhibition of cell proliferation incubated for 72 hrs by CCK8 assay

[4] = tested on: A549; test: Antiproliferative activity against human A549 cells assessed as inhibition of cell proliferation incubated for 72 hrs by MTT assay; type: functional, cell-based; conditions: A549, 72 h
[5] = tested on: HGC-27; test: Antiproliferative activity against human HGC-27 cells assessed as inhibition of cell proliferation incubated for 72 hrs by MTT assay; type: functional, cell-based; conditions: HGC-27, 72 h
[6] = tested on: MCF7; test: Antiproliferative activity against human MCF7 cells assessed as inhibition of cell proliferation incubated for 72 hrs by MTT assay; type: functional, cell-based; conditions: MCF7, 72 h
[7] = tested on: MV4-11; test: Induction of apoptosis in human MV4-11 cells assessed as viable cells at 50 nM incubated for 48 hrs by Annexin V-FITC/PI staining based flow cytometry (reference value: 96.5%); type: functional; conditions: read-out: Activity
[8] = tested on: MV4-11; test: Induction of apoptosis in human MV4-11 cells assessed as necrotic cells at 50 nM incubated for 48 hrs by Annexin V-FITC/PI staining based flow cytometry (reference value: 0.51%); type: functional
[9] = tested on: MV4-11; test: Induction of apoptosis in human MV4-11 cells assessed as necrotic cells at 150 nM incubated for 48 hrs by Annexin V-FITC/PI staining based flow cytometry (reference value: 0.51%); type: functional
[10] = tested on: MV4-11; test: Induction of apoptosis in human MV4-11 cells assessed as early apoptotic cells at 450 nM incubated for 48 hrs by Annexin V-FITC/PI staining based flow cytometry (reference value: 0.95%); type: functional
[11] = tested on: MV4-11; test: Induction of apoptosis in human MV4-11 cells assessed as necrotic cells at 450 nM incubated for 48 hrs by Annexin V-FITC/PI staining based flow cytometry (reference value: 0.51%); type: functional
[12] = tested on: MV4-11; test: Induction of apoptosis in human MV4-11 cells assessed as total apoptotic cells at 50 nM incubated for 48 hrs by Annexin V-FITC/PI staining based flow cytometry (reference value: 2.99%); type: functional
[13] = tested on: MV4-11; test: Induction of cell cycle arrest in human MV4-11 cells assessed as accumulation of cells at S phase at 50 nM incubated for 48 hrs by […]PI staining based flow cytometry (reference value: 45.5%); type: functional
[14] = tested on: MV4-11; test: Induction of cell cycle arrest in human MV4-11 cells assessed as accumulation of cells at G2/M phase at 50 nM incubated for 48 hrs by […]PI staining based flow cytometry (reference value: 11.5%); type: functional
[15] = tested on: MV4-11; test: Induction of cell cycle arrest in human MV4-11 cells assessed as accumulation of cells at G0/G1 phase at 150 nM incubated for 48 hrs by […]PI staining based flow cytometry (reference value: 33.1%); type: functional
[16] = tested on: MV4-11; test: Induction of cell cycle arrest in human MV4-11 cells assessed as accumulation of cells at S phase at 150 nM incubated for 48 hrs by […]PI staining based flow cytometry (reference value: 45.5%); type: functional
[17] = tested on: MV4-11; test: Induction of cell cycle arrest in human MV4-11 cells assessed as accumulation of cells at G2/M phase at 150 nM incubated for 48 hrs by […]PI staining based flow cytometry (reference value: 11.5%); type: functional
[18] = tested on: MV4-11; test: Induction of cell cycle arrest in human MV4-11 cells assessed as accumulation of cells at G2/M phase at 1350 nM incubated for 48 hrs by […]PI staining based flow cytometry (reference value: 11.5%); type: functional
[19] = molecular target: T2, Protein deacetylase HDAC6 (Homo sapiens) (UniProt Q9UBN7); test: Inhibition of HDAC6 in human MV4-11 cells assessed as increase in acetylated alpha-tubulin level incubated for 24 hrs by western blot analysis; type: cell-based; conditions: dose 0.05-0.45 µM, DDE = dose-dependent effect
T2 sequence (whole entry): T1 sequence (Q9UBN7 whole entry)

SMILES: O=C(NO)c1ccc(Cn2cc(-c3cccc4[nH]ncc34)nc(N3CCOCC3)c2=O)cc1
- IC50 [1]: 4.5 nM
- IC50 [2]: 90 nM
- IC50 [3]: 350 nM
- IC50 [4]: 11000 nM
- IC50 [5]: 880 nM
- IC50 [6]: 400 nM
- viability at 0.05 µM [7]: 92.5%
- Activity [8]: 0.34%
- Activity [9]: 3.45%
- Activity [10]: 34.6%
- Activity [11]: 0.69%
- Activity [12]: 7.2%
- Activity [13]: 37.8%
- Activity [14]: 24.6%
- Activity [15]: 25.6%
- Activity [16]: 31%
- Activity [17]: 32.9%
- Activity [18]: 51.8%
- inhibition [19]: Dde
